Source: patent US11337950B2, “Biologically active cannabidiol analogs” (University of Mississippi, priority 2016, dated 2022)
“Also recorded” adds a separate entry of the source. Structures can show the parent of a compound that is named as a salt. Where two headings read alike, the source gives them in different places.

Assays:
[1] = Solubility of CBD and its analogs in Tocrisolve emulsion; assay type: physicochemical; conditions: for Maximum solubility achieved in Tocrisolve: as the substance itself
Procedure: Formulations: 0.5% w/v CBD equivalent in Tocrisolve emulsion.
Tocrisolve composition: […] emulsion composed of a 1:4 ratio of soya oil/water that is emulsified with the block co-polymer Pluronic F68. Manufacturing process for the Tocrisolve emulsion: • Add accurately weighed amount of drug a glass vial. • Add required volume of Torcisolve blank emulsion to each vial • Vortex each vial for 5 minutes. • Sonicate each vial for 10 minutes. • Centrifuge each vial for 5 minutes at 9000 rpm at 25° C. • Collect the supernatant and analyze for CBD, CBD-Val Mono and CBD-Val-HS mono as applicable.

[2] = In vivo eye tissue levels 90 min after topical application in Tocrisolve emulsion (Examples 12-14); set-up: species or system New Zealand albino rabbits; conditions: for concentration at 90 min: male, New Zealand albino, 90 min post topical 50 μL Tocrisolve emulsion; for Penetration into the ocular tissues, in words (Example 14): topical Tocrisolve emulsion
Procedure: Conscious male New Zealand albino rabbits were used. The formulations were applied topically into the rabbits eyes (50 μL containing the equivalent of 250 μg CBD) in Tocrisolve® emulsion formulations as described in Example 11. The animals were sacrificed 90 min. after drug application and the eye tissues harvested for analysis.
The same procedure was followed as shown under Example 12. Additional CBD analogs were tested in this example. In this example the tissue levels of both free CBD and intact analog were determined.
Formulations: Fifty microlitres of 0.5% w/v CBD in Tocrisolve emulsion (Dose: 0.25 mg)
Animal model: Conscious male new Zealand albino rabbits, Duration of the study: 90 min.
Aqueous humor, Vitreous humor, Retina-Choroid and Iris-Ciliary bodies analysed for parent compound as well as CBD.
Formulations: Fifty microlitres of 0.5% w/v Tocrisolve emulsion formulations (Dose: 0.25 mg)
Animal model: Conscious male new Zealand albino rabbits, Duration of the study: 90 min

[3] = assay type: physicochemical; conditions: for Concentration of CBD / Concentration of Δ^9-THC: CBD incubated, 37° C.; for Stability under acidic (gastric juice) conditions, in words: pH 1.2, 37° C.; for Stability under physiologic / intestinal juice conditions, in words: pH 7.4, 37° C.
Procedure: The stability CBD and CBD analogs (CBD-Mono-VHS and CBD-Di-VHS) was evaluated under acidic and alkaline conditions to simulate exposure to gastric and intestinal fluids. The procedure is outlined as follows: • 1. Stock solution of 5 mg/mL CBD, CBD-Mono-Val-Mono HS, CBD-Di-Val-Di HS was prepared. • 2. Simulated Gastric Fluid (pH 1.2)+1% (SDS) was prepared and kept in 37° C. water bath. • 3. Physiological buffer (pH 7.4)+1% SDS was prepared and kept in 37° C. water bath. • 4. 100 μL of CBD, CBD-Mono-Val-Mono HS or CBD-Di-Val-Di-HS stock in acetonitrile (equivalent to 500 μg) was spiked into separate vials containing 5 ml of either pH 1.2 and 7.4. • 5. At each time point, 100 μL of the solution was withdrawn. • 6. 900 μL acetonitrile was added to each sample. • 7. All samples centrifuged at 4° C. and 13,000 rpm. • 8. 100 μL of the supernatant was withdrawn; to this 100 μL of supernatant, 900 μL of acetonitrile was added and placed in LC vials for analysis. Tables 9, 10 and 11, and FIGS. 7a, 7b, 18, and 19 show the results.

[4] = system: cisplatin-induced tactile allodynia; experiment: Cisplatin-induced tactile allodynia model, electronic von Frey (Examples 23, 24); assay type: in vivo, C57BL/6 mice; conditions: mice
[5] = system: morphine place preference; experiment: Morphine conditioned place preference, model of addiction (Example 25); conditions: mice
[6] = Bioavailability of CBD from suppository formulations containing CBD-Val-HS (Example 15); assay type: in vivo; conditions: cannulated rats, rectal suppository; PEG 1000 (7 mg) vs Wecobe W (6.125 or 4.625 mg)
Procedure: CBD-Val-HS was formulated in both lipophilic (Wecobe W base) and hydrophilic (PEG 1000 base) suppository formulations. The formulations were administered to cannulated rats (100 mg suppository per rat) and blood samples were collected, centrifuged and the plasma separated for LC/MS/MS analysis. The amount of CBD in the plasma samples was quantified. The amount of CBD-Val-HS in the plasma samples was not quantified.

[7] = rabbit eye, 90 min post topical, 250 μg CBD equivalent

**Q.** Which results are given for `C=C(C)[C@@H]1CCC(C)=C[C@H]1c1c(O)cc(CCCCC)cc1O` [CBD, Cannabidiol]?
**A.** Maximum solubility achieved in Tocrisolve [1]: 1.19 % w/v; concentration at 90 min ([2]; retina-choroid, Table 2, rabbit eye, 250 μg CBD equivalent, read-out: Concentration of CBD in Retina Choroid): 17.3 ± 6.5 ng/g; Ocular tissue levels of the applied substance, in words (Example 13) ([2]; rabbit eye, 90 min post topical, 0.25 mg CBD): no levels in the tissues at all; Ocular tissue levels, in words (Example 12) [2, 7]: very low levels in the retina choroid; Concentration of CBD ([3]; Acid (pH 1.2), Time Point 0): 656 ng/mL; Concentration of Δ^9-THC ([3]; Acid (pH 1.2), Time Point 0): 38 ng/mL; Concentration of CBD ([3]; Acid (pH 1.2), Time Point 15): 553 ng/mL; Concentration of Δ^9-THC ([3]; Acid (pH 1.2), Time Point 15): 238 ng/mL; Concentration of CBD ([3]; Acid (pH 1.2), Time Point 30): 204 ng/mL; Concentration of Δ^9-THC ([3]; Acid (pH 1.2), Time Point 30): 243 ng/mL; Concentration of CBD ([3]; Acid (pH 1.2), Time Point 60): 111 ng/mL; Concentration of Δ^9-THC ([3]; Acid (pH 1.2), Time Point 60): 496 ng/mL; Concentration of CBD ([3]; Acid (pH 1.2), Time Point 90): 91 ng/mL; Concentration of Δ^9-THC ([3]; Acid (pH 1.2), Time Point 90): 625 ng/mL; Concentration of CBD ([3]; Acid (pH 1.2), Time Point 120): 46 ng/mL; Concentration of Δ^9-THC ([3]; Acid (pH 1.2), Time Point 120): 454 ng/mL; Concentration of CBD ([3]; Base (pH 7.4), Time Point 0): 760 ng/mL; Concentration of CBD ([3]; Base (pH 7.4), Time Point 15): 943 ng/mL; Concentration of CBD ([3]; Base (pH 7.4), Time Point 30): 1015 ng/mL; Concentration of CBD ([3]; Base (pH 7.4), Time Point 60): 1119 ng/mL; Concentration of CBD ([3]; Base (pH 7.4), Time Point 90): 1081 ng/mL; Concentration of CBD ([3]; Base (pH 7.4), Time Point 120): 975 ng/mL; Conversion to Δ^9-THC under acidic conditions, in words ([3]; acidic conditions): converts to Δ^9-THC; Stability under acidic (gastric juice) conditions, in words [3]: partially converted to THC; Stability under physiologic / intestinal juice conditions, in words [3]: stable; Effect on cisplatin-induced tactile allodynia (eVF paw withdrawal), in words ([4]; Example 23, 1.0 mg/kg CBD in combination with 0.1 mg/kg morphine, IP): did not further alter the anti-allodynic properties; Effect on cisplatin-induced tactile allodynia (eVF paw withdrawal), in words ([4]; Example 23, 1.0 mg/kg IP alone, 45 minutes prior to testing): modest attenuation of CIN; Effect on cisplatin-induced tactile allodynia (eVF paw withdrawal), in words ([4]; Example 23, 2.0 mg/kg CBD in combination with 0.1 mg/kg morphine, IP): attenuated tactile allodynia comparable to 2.5 mg/kg morphine; Effect on cisplatin-induced tactile allodynia (eVF paw withdrawal), in words ([4]; Example 23, 2.0 mg/kg CBD in combination with 2.5 mg/kg morphine, IP): not further enhanced; Effect on cisplatin-induced tactile allodynia (eVF paw withdrawal), in words ([4]; Example 23, 2.0 mg/kg IP alone, 45 minutes prior to testing): ineffective; Effect on morphine place preference, in words ([5]; morphine groups, IP, CBD 2.5-20.0 mg/kg, CBD-val-HS 10.0 mg/kg): dose-dependently decreased preference scores that approached significance at 10 mg/kg CBD; also recorded: showed a tendency to block the addictive effects of morphine; Place preference or aversion of the substance itself, in words ([5]; saline groups, IP, CBD 2.5-20.0 mg/kg, CBD-val-HS 10.0 mg/kg): did not show neither place preference nor aversion

**Q.** Which results are given for `C=C(C)C1CCC(C)=CC1c1c(OC(=O)[C@@H](NC(=O)CCC(=O)O)C(C)C)cc(CCCCC)cc1OC(=O)[C@@H](NC(=O)CCC(=O)O)C(C)C` (stereo partly shown) [CBD-Val-HS, CBD-Di-Valinate-Di-Hemisuccinate]?
**A.** Penetration into the ocular tissues, in words (Example 14) ([2]; rabbit eye): not adequate; Plasma levels of CBD, hydrophilic base compared with lipophilic base, in words [6]: Higher levels of CBD; Stability under acidic (gastric juice) conditions, in words [3]: stable; Stability under physiologic / intestinal juice conditions, in words [3]: stable

**Q.** With `C=C(C)C1CCC(C)=CC1c1c(OC(=O)[C@@H](NC(=O)CCC(=O)O)C(C)C)cc(CCCCC)cc1OC(=O)[C@@H](NC(=O)CCC(=O)O)C(C)C` (stereo partly shown) [CBD-Val-HS] as the molecule, how does the concentration at 90 min ([2]; aqueous humor, Table 2, rabbit eye, 250 μg CBD equivalent, read-out: Concentration of CBD-Val-HS in Aqueous Humor) read?
**A.** 24.6 ± 16.2 ng/g

**Q.** What about the concentration at 90 min ([2]; retina-choroid, Table 2, rabbit eye, 250 μg CBD equivalent, read-out: Concentration of CBD-Val-HS in Retina Choroid) of the same molecule?
**A.** 417 ± 114 ng/g

**Q.** And the concentration at 90 min ([2]; vitreous humor, Table 2, rabbit eye, 250 μg CBD equivalent, read-out: Concentration of CBD-Val-HS in Vitreous Humor)?
**A.** 612 ± 264 ng/g

**Q.** With `C=C(C)C1CCC(C)=CC1c1c(OC(=O)[C@@H](N)C(C)C)cc(CCCCC)cc1OC(=O)[C@@H](N)C(C)C` (stereo partly shown) [CBD-di-Val, CBD-Di-Valinate] as the molecule, how does the “Penetration into the ocular tissues, in words (Example 14)” value ([2]; rabbit eye) read?
**A.** not adequate

**Q.** What does the source list for `C=C(C)C1CCC(C)=CC1c1c(OC(=O)CCC(=O)O)cc(CCCCC)cc1OC(=O)CCC(=O)O` (stereo not shown) [CBD-HS, CBD-Di-Hemisuccinate]?
**A.** Maximum solubility achieved in Tocrisolve [1]: 1.12 % w/v; Maximum solubility achieved in Tocrisolve (In terms of CBD) [1]: (0.7) % w/v; Penetration into the ocular tissues, in words (Example 14) ([2]; rabbit eye): not adequate

**Q.** With `CN1CC[C@]23c4c5ccc(O)c4O[C@H]2[C@@H](O)C=C[C@H]3[C@H]1C5.O=S(=O)(O)O` [morphine, Morphine sulfate] as the molecule, how does the “Effect on cisplatin-induced tactile allodynia (eVF paw withdrawal), in words” value (shortened to “Effect … (eVF paw withdrawal), in words”) ([4]; Example 23, 0.1 mg/kg IP alone, 45 minutes prior to testing) read?
**A.** did not affect eVF responses

**Q.** What about the “Effect … (eVF paw withdrawal), in words” value ([4]; Example 23, 2.5 mg/kg IP alone, 45 minutes prior to testing) of the same molecule?
**A.** fully attenuated tactile allodynia

**Q.** And the “Effect … (eVF paw withdrawal), in words” value ([4]; Example 24, 0.1 mg/kg IP alone)?
**A.** did not affect eVF responses

**Q.** What about the “Effect … (eVF paw withdrawal), in words” value ([4]; Example 24, 2.5 mg/kg IP alone) of the same molecule?
**A.** fully attenuated tactile allodynia

**Q.** What about the “Conditioned place preference scores, in words” value ([5]; morphine treated vs control group (vehicle+saline)) of the same molecule?
**A.** higher preference scores compared to the control group

**Q.** With `C=C(C)C1CCC(C)=CC1c1c(OC(=O)[C@@H](NC(=O)CCC(=O)O)C(C)C)cc(CCCCC)cc1OC(=O)[C@@H](NC(=O)CCC(=O)O)C(C)C` (stereo partly shown) [CBD-VAL-HS] as the molecule, how does the concentration at 90 min ([2]; retina-choroid, Table 4, Set 2, rabbit, dose 250 μg, read-out: Analog Concentration, Retina Choroid) read?
**A.** 142 ± 76 ng/g

**Q.** For `C=C(C)C1CCC(C)=CC1c1c(OC(=O)[C@@H](N)C(C)C)cc(CCCCC)cc1OC(=O)[C@@H](N)C(C)C` (stereo partly shown) [CBD-Val-HCl], which “Maximum solubility achieved in Tocrisolve” value [1] is on record?
**A.** 2.04 % w/v

**Q.** What about the “Maximum solubility achieved in Tocrisolve (In terms of CBD)” value [1] of the same molecule?
**A.** (1.09) % w/v

**Q.** And the concentration at 90 min ([2]; retina-choroid, Table 2, rabbit eye, 250 μg CBD equivalent, read-out: Concentration of CBD-Val in Retina Choroid)?
**A.** 9.1 ± 1.5 ng/g

**Q.** What about the “Ocular tissue levels, in words (Example 12)” value [2, 7] of the same molecule?
**A.** very low levels in the retina choroid

**Q.** Which results are given for CBD-Mono-Valinate [CBD-VAL-MONO]?
**A.** Maximum solubility achieved in Tocrisolve [1]: 1.41 % w/v; Maximum solubility achieved in Tocrisolve (In terms of CBD) [1]: (1.07) % w/v
